The target in data set [1] is T1, human α4β2 nAChR (Homo sapiens, UniProt P17787+P43681). Briefly: [3H]cytisine competition binding on membrane homogenates of SH-EP-hα4β2 clonal cells. Also noted: expressed in transfected cells. As to conditions: mean ± SEM of four experiments. As for the experimental part: First, we determined the half maximal inhibitory concentration (IC50) of the synthesized molecules for human α4β2 nAChR using [^3H]-cytisine ([^3H-Cyt]) as a radioligand. It is well known that [^3H-Cyt] binds to the agonist (orthosteric) site of α4β2 nACRs.
Figure 4 Effects of phenylpyrrolidine derivatives on binding of [^3H]cytisine to human α4β2 nAChRs. Data points represent the mean ± SEM of four experiments. Each experiment was carried out in triplicate. The radioligand concentration in all displacement studies was 1 nM. The concentration-inhibition data was analyzed non-linearly.
Membrane homogenates for [^3H]-Cyt binding studies were prepared from the SH-EP-h α4β2 clonal cell line, which express human α4β2 nAChRs. Cells were maintained in Dulbecco’s modified Eagle’s medium (Invitrogen, UK) supplemented with 5% fetal serum, 10% horse serum, 2 mM L-glutamine, 10 IU/mL penicillin, 10 μg/mL streptomycin, 2.5 μg/mL amphotericin-B, 0.25 mg/mL zeocin, and 0.13 mg/mL hygromycin.
Competition binding studies were performed on membrane homogenates prepared SH-EP-hα4β2 clonal cell line, using [^3H]cyt (PerkinElmer, UK), as previously described. Membrane homogenates were incubated at a final protein concentration of 30 to 50 µg per assay tube in a final volume of 250 µL of binding saline ([…]: 120 NaCl, 5 KCl, 1 MgCl2, 2.5 CaCl2, 50 Tris, pH 7.0) for 75 min at 4 °C with 1 nM [^3H]cyt. […] Bound and free fractions were separated by rapid filtration through Whatman GF/C filters presoaked in binding saline supplemented with 0.1% polyethyleneimine. Radioactivity was quantified by liquid scintillation spectrometry.

In data set [2] the target is T1, human α4β2 nAChR. Description: two-electrode voltage clamp on human α4β2 nAChR expressed in Xenopus laevis oocytes. The data set is classed as cell-based. On the set-up: expressed in transfected cells; host or cells: Xenopus laevis oocytes (nuclear cDNA injection). The note with it: for agonist profile at human α4β2 nAChR: in words; for Imax: maximal current normalized to response to 1 mM ACh, mean ± SEM; for Emax: read-out: maximal response (efficacy) as % of the ACh Imax. As for the experimental part:
The functional effects of our compounds were tested on α4β2 nAChR heterologously expressed in Xenopus laevis oocytes. Experiments were carried out by using the two-electrode voltage clamp procedure.
Figure 5 Interaction of phenylpyrrolidine derivatives with human α4β2 nicotinic receptors expressed in Xenopus laevis oocytes. Whole cell currents in response to agonist application were measured by a two-electrode voltage clamp. Concentration-response curves show activation of whole cell currents by compounds 1, 2, 3, and 4. Each point represents data from four to five cells, normalized to the amplitude of the maximal responses of ACh, which was stimulated by 1 mM of ACh. The data are fitted to a single component Hill curve.
The α4β2 nAChRs (wild type) were expressed heterologously in defolliculated oocytes from Xenopus laevis, which were dissected from adult female X. laevis frogs (Nasco, Fort Atkinson, WI, USA). The Oxford Brookes University Animal Research Committee, in accordance with the guidelines of the 1986 Scientific Procedures Act of the United Kingdom, approved the care and use of X. laevis frogs in this study. A mixture of 1:1 of human of α4 and β2 subunits for α4β2 subtype cDNAs were injected into the nuclei of oocytes in a volume of 23 nL/oocyte by using a Nanoject Automatic Oocyte Injector (Drummond Scientific, Broomall, PA, USA). After injection, oocytes were incubated at 17 °C in OPS (NaCl, KCl, CaCl2, MgCl2, pH 7.4) supplemented with a mixture of penicillin-streptomycin-anphotericin-B (10,000 IU/mL penicillin, 10 mg/mL streptomycin, and 25 µg amphotericin-B/mL) and amikacin (100 µg/mL). Experiments were performed on oocytes 2 to 6 days after injection.
Electrophysiological recording from oocyte post-injection was made at room temperature using a standard two electrode voltage clamp technique with an automatic multichannel system (HiClamp, Multichannel Systems, Reutlingen, Germany). Oocytes were impaled by two borosilicate capillary glass (Harvard Instrument: 150 TF GC) microelectrodes filled with 3 M KCl (0.3–2.0 MΩ) and voltage-clamped at −60 mV. During recording, oocytes were perfused with OPS (oocytes perfusion solution), as described in the manual of HiClamp. Agonist responses were normalized to the amplitude of the responses induced by 1 mM ACh, which is the maximal ACh concentration at α4β2 nAChRs. Between each successive ACh or compound application, the cell was perfused with OPS solution for 3 min to allow drug clearance and prevent receptor desensitization.
Background: Two-electrode voltage clamp is typically applied to oocytes expressing channels or transporters.

Data set [3] concerns the target T1, human α4β2 nAChR. As to conditions: nicotine, included for comparison, no SEM, not in Figure 5; cited from earlier work.
The mark [4] stands for this setting: displacement of 1 nM [3H]cytisine, read-out: α4β2 IC50.
[5] abbreviates: Xenopus laevis oocytes, -60 mV, mean ± SEM of four to five experiments, read-out: α4β2 EC50.
Setting [6] is: relative to 1 mM ACh, Xenopus laevis oocytes.

The structures appear in SMILES notation. “And” between values parts separate entries of the source, which are not always exact repeats. Equal values may be shown once. Where a name gives a salt, the structure may show the parent alone. Read-outs that look alike come from different tables or passages of the source.

As a reminder, the IC50 is the concentration needed to halve the response being measured. What is called EC50 is the concentration that produces a half-maximal response. Turning to `CN1CCC[C@H]1COc1cccc(Cl)c1` [Compound 3, (S)-1-methyl-2-(3′-Chlorophenoxymethyl)pyrrolidine Ether], the IC50 on human α4β2 nAChR [1] (setting [4]) is 221 ± 10 nM. The EC50 at human α4β2 nAChR [2] (setting [5]) was 63300 ± 2100 nM. Moreover, on human α4β2 nAChR [2] (Xenopus laevis oocytes), the “agonist profile at human α4β2 nAChR” value is “partial agonist” and the Imax is listed as 0.29 ± 0.01. The Emax at human α4β2 nAChR [2] (setting [6]) came out at 29%.

With `CN1CCC[C@H]1COc1cccc(N)c1` [Compound 2, (S)-1-methyl-2-(3′-aminophenoxymethyl)pyrrolidine Ether], the concentration for half-maximal inhibition (IC50) on human α4β2 nAChR [1] (setting [4]) is 13 nM and 13.8 nM. On human α4β2 nAChR [2] (setting [5]), the EC50 was 10800 ± 700 nM. At human α4β2 nAChR [2] (Xenopus laevis oocytes), the “agonist profile at human α4β2 nAChR” value is reported as “full agonist” and the Imax came out at 1.00 ± 0.01. For the same compound, the “fold more potent than compound 1 (EC50)” value on human α4β2 nAChR [2] (Xenopus laevis oocytes, ratio of EC50 values) was “about seven-fold”. For the same compound, the Emax on human α4β2 nAChR [2] (setting [6]) was determined as 100%.

With `CN1CCC[C@H]1c1cccnc1` [Nicotine], the Imax on human α4β2 nAChR [3] was 1.00.

For `CN1CCC[C@H]1COc1ccccc1` [Compound 1, (S)-1-methyl-2-(phenoxymethyl)pyrrolidine Ether], the IC50 at human α4β2 nAChR [1] (setting [4]) worked out at 204 ± 6 nM. Besides, the EC50 on human α4β2 nAChR [2] (setting [5]) turned out to be 68800 ± 1300 nM. Further, the “agonist profile at human α4β2 nAChR” value at human α4β2 nAChR [2] (Xenopus laevis oocytes) is recorded as “partial agonist”.

Take `CN1CCC[C@H]1COc1cccc(Br)c1` [Compound 4, (S)-1-methyl-2-(3′-bromophenoxymethyl)pyrrolidine Ether]: the IC50 on human α4β2 nAChR [1] (α4β2 IC50, displacement of 1 nM [3H]cytisine) was 188 ± 7 nM. Further, on human α4β2 nAChR [2], the concentration for a half-maximal effect (EC50) was found to be 56700 ± 1700 nM and the Emax stood at 13%. In addition, on human α4β2 nAChR [2] (Xenopus laevis oocytes), the “agonist profile at human α4β2 nAChR” value is on record as “partial agonist” and the Imax was determined as 0.13 ± 0.01.

For orientation: melting point means the temperature of the solid-liquid transition. Compound `CN1CCC[C@H]1COc1cccc(N)c1` (as salt: hydrochloride) [Compound 2, (S)-1-methyl-2-(3′-aminophenoxymethyl)pyrrolidine Ether] yielded a melting point of 198 to 200 °C.
